Experimental data published in ChEMBL document CHEMBL3352398, “2-(2-Bromophenyl)-formononetin and 2-heptyl-formononetin are PPARγ partial agonists and reduce lipid accumulation in 3T3-L1 adipocytes” (Bioorg Med Chem, 2014).
The source made the active and inactive calls. The rule behind the calls is not given here.

Assays:
3T3-L1 [1] = assay: Effect on adipogenesis in mouse 3T3L1 cells in DI media assessed as reduction in lipid accumulation at 50 uM measured on day 8 by fluorescence-based AdipoRed assay; type: functional, cell-based
[2] = Cytotoxicity against mouse 3T3L1 cells assessed as effect on lactate dehydrogenase release at 5 to 50 uM measured on day 8; type: cell-based; details: 3t3-l1, 50 µM
[3] = target: T1, Peroxisome proliferator-activated receptor gamma (Mus musculus) (UniProt P37238); assay: Agonist activity at PPAR-gamma in mouse embryo fibroblast by transactivation assay relative to rosiglitazone
T1 sequence (whole entry): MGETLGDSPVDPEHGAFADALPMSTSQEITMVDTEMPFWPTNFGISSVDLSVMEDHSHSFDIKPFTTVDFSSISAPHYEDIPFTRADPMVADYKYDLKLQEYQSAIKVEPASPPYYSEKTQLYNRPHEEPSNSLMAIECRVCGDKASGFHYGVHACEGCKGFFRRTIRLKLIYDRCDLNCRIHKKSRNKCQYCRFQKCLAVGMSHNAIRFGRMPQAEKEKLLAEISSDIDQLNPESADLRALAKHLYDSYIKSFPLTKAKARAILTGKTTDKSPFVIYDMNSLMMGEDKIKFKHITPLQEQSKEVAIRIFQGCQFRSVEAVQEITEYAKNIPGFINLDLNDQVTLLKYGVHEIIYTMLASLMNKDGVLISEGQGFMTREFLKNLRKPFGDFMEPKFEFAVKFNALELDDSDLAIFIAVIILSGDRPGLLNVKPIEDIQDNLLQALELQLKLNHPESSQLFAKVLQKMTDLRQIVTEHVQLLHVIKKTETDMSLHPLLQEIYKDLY

[4] = Cytotoxicity against mouse 3T3L1 cells assessed as LDH release at 50 uM after 48 hrs; type: cell-based; details: 3t3-l1, 48 h
3T3-L1 [5] = assay: Reduction of adipogenesis in mouse 3T3L1 cells assessed as decrease in lipid accumulation measured on day 8 by fluorescence-based AdipoRed assay; type: functional, cell-based
3T3-L1 [6] = assay: Induction of lipolysis in mouse 3T3L1 cells assessed as up-regulation of Acox1 gene exression by real time-qPCR analysis; type: functional, cell-based
[7] = target: T1, Peroxisome proliferator-activated receptor gamma (Mus musculus); assay: Agonist activity at PPAR-gamma in mouse embryo fibroblast at 5 to 50 uM by transactivation assay relative to rosiglitazone
3T3-L1 [8] = assay: Reduction in triglyceride release in mouse 3T3L1 cells at 50 uM after 48 hrs by fluorescence-based AdipoRed assay; type: functional, cell-based
3T3-L1 [9] = assay: Reduction in lipogenesis in mouse 3T3L1 cells assessed as down regulation of Scd1 gene exression by real time-qPCR analysis; type: functional, cell-based
3T3-L1 [10] = assay: Effect on lipolysis in mouse 3T3L1 cells assessed as reduction in glycerol level at 5 to 50 uM after 48 hrs by UV-Vis spectrophotometry; type: functional, cell-based
3T3-L1 [11] = assay: Reduction of adipogenesis in mouse 3T3L1 cells assessed as decrease in lipid accumulation measured on day 8 by oil red o assay; type: functional, cell-based
3T3-L1 [12] = assay: Effect on adipogenesis in mouse 3T3L1 cells in DI media assessed as increase in lipid accumulation at <25 uM after 8 days by fluorescence-based AdipoRed assay; type: functional, cell-based
[13] = target: T2, Peroxisome proliferator-activated receptor delta (Homo sapiens) (UniProt Q03181); assay: Agonist activity at PPAR-delta (unknown origin) by transactivation assay
T2 sequence (whole entry): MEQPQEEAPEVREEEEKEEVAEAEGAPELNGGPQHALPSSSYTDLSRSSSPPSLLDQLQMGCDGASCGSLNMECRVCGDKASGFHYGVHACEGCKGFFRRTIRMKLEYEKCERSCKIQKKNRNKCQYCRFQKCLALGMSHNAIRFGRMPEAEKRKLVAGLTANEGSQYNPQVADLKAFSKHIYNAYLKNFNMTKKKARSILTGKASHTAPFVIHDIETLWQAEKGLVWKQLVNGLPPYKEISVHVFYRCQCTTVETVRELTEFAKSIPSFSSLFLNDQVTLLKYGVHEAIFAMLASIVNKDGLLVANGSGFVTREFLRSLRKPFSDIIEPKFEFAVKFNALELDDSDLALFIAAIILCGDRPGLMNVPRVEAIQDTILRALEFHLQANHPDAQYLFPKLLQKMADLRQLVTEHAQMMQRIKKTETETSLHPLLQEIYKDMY

3T3-L1 [14] = assay: Effect on adipogenesis in mouse 3T3L1 cells in DI media assessed as reduction in fat-laden mature adipocytes at 50 uM after 8 days by oil red o assay; type: functional, cell-based
[15] = target: T3, Peroxisome proliferator-activated receptor gamma (Homo sapiens) (UniProt P37231); assay: Competitive binding to human GST-tagged PPAR-gamma at <=100 uM by TR-FRET assay
T3 sequence (whole entry): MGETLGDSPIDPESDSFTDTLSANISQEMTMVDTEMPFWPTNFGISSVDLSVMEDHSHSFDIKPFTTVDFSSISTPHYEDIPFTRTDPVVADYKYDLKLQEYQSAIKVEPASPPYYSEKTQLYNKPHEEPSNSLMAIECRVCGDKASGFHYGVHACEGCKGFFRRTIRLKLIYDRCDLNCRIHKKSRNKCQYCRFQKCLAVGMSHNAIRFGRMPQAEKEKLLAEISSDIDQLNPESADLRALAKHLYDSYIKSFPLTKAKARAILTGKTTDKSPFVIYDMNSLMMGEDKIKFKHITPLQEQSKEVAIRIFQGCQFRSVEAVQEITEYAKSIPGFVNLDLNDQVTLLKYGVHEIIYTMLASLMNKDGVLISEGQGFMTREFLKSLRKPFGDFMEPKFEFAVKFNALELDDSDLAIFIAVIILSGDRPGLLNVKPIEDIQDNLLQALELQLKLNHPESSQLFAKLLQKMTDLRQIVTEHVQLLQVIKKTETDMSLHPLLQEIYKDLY

[16] = Cytotoxicity against mouse 3T3L1 cells assessed as effect on lactate dehydrogenase release at 5 to 50 uM measured on day 2; type: cell-based; details: 3t3-l1, 50 µM
3T3-L1 [17] = assay: Effect on adipogenesis in mouse 3T3L1 cells in DI media assessed as increase in fat-laden mature adipocytes at <25 uM after 8 days by oil red o assay; type: functional, cell-based
3T3-L1 [18] = assay: Activation of AMPK in mouse 3T3L1 cells assessed as AMPK phosphorylation at 50 uM after 5 to 48 hrs by Western blotting analysis; type: cell-based
[19] = target: T4, Peroxisome proliferator-activated receptor alpha (Homo sapiens) (UniProt Q07869); assay: Agonist activity at PPAR-alpha (unknown origin) by transactivation assay
T4 sequence (whole entry): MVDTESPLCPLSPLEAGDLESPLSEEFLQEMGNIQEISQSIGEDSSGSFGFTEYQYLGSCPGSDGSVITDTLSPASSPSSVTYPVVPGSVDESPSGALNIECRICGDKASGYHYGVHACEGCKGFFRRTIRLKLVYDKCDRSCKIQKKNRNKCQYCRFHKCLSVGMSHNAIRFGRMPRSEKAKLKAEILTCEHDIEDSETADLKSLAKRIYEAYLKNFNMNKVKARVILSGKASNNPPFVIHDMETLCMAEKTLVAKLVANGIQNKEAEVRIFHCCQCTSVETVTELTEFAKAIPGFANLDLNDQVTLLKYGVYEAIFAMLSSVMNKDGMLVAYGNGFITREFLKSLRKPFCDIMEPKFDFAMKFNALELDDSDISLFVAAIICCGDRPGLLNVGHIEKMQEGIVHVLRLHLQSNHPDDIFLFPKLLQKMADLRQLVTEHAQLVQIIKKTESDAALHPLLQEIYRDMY

3T3-L1 [20] = assay: Reduction in triglyceride release in mouse 3T3L1 cells at 50 uM after 48 hrs by oil red o assay; type: functional, cell-based
[21] = Effect on adipogenesis in mature mouse 3T3L1 cells assessed as upregulation of Sirt1 gene expression; type: functional, cell-based; details: 3T3-L1
[22] = target: Peroxisome proliferator-activated receptor gamma (Mus musculus) (UniProt P37238); assay: Partial agonist activity at PPAR-gamma in mouse embryo fibroblast assessed as reduction in activation by transactivation assay in presence of rosiglitazone
[23] = target: T5, Peroxisome proliferator-activated receptor gamma (Homo sapiens, UniProt P37231); assay: Binding affinity to PPAR-gamma (unknown origin)
T5 sequence (P37231 whole entry): T3 sequence (whole entry)

3T3-L1 [24] = assay: Activation of AMPK in mouse 3T3L1 cells assessed as AMPK phosphorylation at 500 uM after 5 hrs by Western blotting analysis; type: cell-based
3T3-L1 [25] = assay: Effect on adipogenesis in mouse 3T3L1 cells assessed as increase in lipid accumulation at 5 to 50 uM measured on day 8 by oil red o assay; type: functional, cell-based
3T3-L1 [26] = assay: Effect on adipogenesis in mouse 3T3L1 cells assessed as reduction in Cebpa gene expression at 5 to 50 uM after 4 days by real time quantitative PCR analysis relative to vehicle-treated control; type: functional, cell-based
3T3-L1 [27] = assay: Effect on adipogenesis in mouse 3T3L1 cells assessed as reduction in Pparg gene expression at 5 to 50 uM after 4 days by real time quantitative PCR analysis relative to vehicle-treated control; type: functional, cell-based
3T3-L1 [28] = assay: Induction of lipolysis in mouse 3T3L1 cells assessed as up-regulation of Atgl gene exression by real time-qPCR analysis; type: functional, cell-based
3T3-L1 [29] = assay: Effect on adipogenesis in mouse 3T3L1 cells assessed as increase in lipid accumulation at 5 to 50 uM measured on day 8 by fluorescence-based AdipoRed assay; type: functional, cell-based
3T3-L1 [30] = assay: Effect on adipogenesis in mouse 3T3L1 cells in DI media assessed as increase in fat-laden mature adipocytes after 8 days by oil red o assay; type: functional, cell-based
[31] = target: Peroxisome proliferator-activated receptor gamma (Mus musculus) (UniProt P37238); assay: Partial agonist activity at PPAR-gamma in mouse embryo fibroblast assessed as reduction in activation at 5 to 50 uM by transactivation assay in presence of rosiglitazone
3T3-L1 [32] = assay: Effect on adipogenesis in mouse 3T3L1 cells assessed as reduction in Fabp4 gene expression at 5 to 50 uM after 4 days by real time quantitative PCR analysis relative to vehicle-treated control; type: functional, cell-based
3T3-L1 [33] = assay: Effect on adipogenesis in mouse 3T3L1 cells in DI media assessed as increase in lipid accumulation after 8 days by fluorescence-based AdipoRed assay; type: functional, cell-based
3T3-L1 [34] = assay: Effect on adipogenesis in mouse 3T3L1 cells assessed as reduction in Adipoq gene expression at 5 to 50 uM after 4 days by real time quantitative PCR analysis relative to vehicle-treated control; type: functional, cell-based
3T3-L1 [35] = assay: Effect on adipogenesis in mouse 3T3L1 cells assessed as reduction in Srebf1 gene expression at 5 to 50 uM after 4 days by real time quantitative PCR analysis relative to vehicle-treated control; type: functional, cell-based
3T3-L1 [36] = assay: Effect on adipogenesis in mouse 3T3L1 cells assessed as reduction in Adipoq gene expression at 5 to 50 uM after 8 days by real time quantitative PCR analysis relative to vehicle-treated control; type: functional, cell-based
3T3-L1 [37] = assay: Effect on adipogenesis in mouse 3T3L1 cells assessed as reduction in Pparg gene expression at 5 to 50 uM after 8 days by real time quantitative PCR analysis relative to vehicle-treated control; type: functional, cell-based
3T3-L1 [38] = assay: Effect on adipogenesis in mouse 3T3L1 cells assessed as reduction in Cebpa gene expression at 5 to 50 uM after 8 days by real time quantitative PCR analysis relative to vehicle-treated control; type: functional, cell-based
3T3-L1 [39] = assay: Effect on adipogenesis in mouse 3T3L1 cells assessed as reduction in Fabp4 gene expression at 5 to 50 uM after 8 days by real time quantitative PCR analysis relative to vehicle-treated control; type: functional, cell-based
3T3-L1 [40] = assay: Effect on adipogenesis in mouse 3T3L1 cells assessed as increase in Srebf1 gene expression at 5 to 50 uM after 8 days by real time quantitative PCR analysis relative to vehicle-treated control; type: functional, cell-based

COc1ccc(-c2c(-c3ccccc3Br)oc3cc(O)ccc3c2=O)cc1
Activity (3T3-L1 [1]): Active | Activity [2]: Non-toxic | Activity [3]: Dose-dependent effect | Activity [4]: Toxic | Activity (3T3-L1 [5]): Dose-dependent effect | Activity (3T3-L1 [6]): Active | Activity [7]: 4% | Activity (3T3-L1 [8]): Active | Activity (3T3-L1 [9]): Active | Activity (3T3-L1 [10]): Active | Activity (3T3-L1 [11]): Dose-dependent effect | Activity (3T3-L1 [12]): Active | Activity [13]: inactive | Activity (3T3-L1 [14]): Active | Activity [15]: Active | Activity [16]: Non-toxic | Activity (3T3-L1 [17]): Active | Activity (3T3-L1 [18]): inactive | Activity [19]: inactive | Activity (3T3-L1 [20]): Active | Activity [21]: inactive | Activity [22]: Dose-dependent effect

COc1ccc(C2COc3cc(O)ccc3C2=O)cc1 (stereo unspecified)
IC50 [23]: 124 µM

COc1ccc(C(C)C(=O)c2ccc(O)cc2O)cc1 (stereo unspecified)
IC50 [23]: 26 µM

NC(=O)c1ncn([C@@H]2O[C@H](CO)[C@@H](O)[C@H]2O)c1N
Activity (3T3-L1 [24]): Active

COc1ccc(-c2coc3cc(O)ccc3c2=O)cc1 [FORMONONETIN]
Activity [2]: Non-toxic | Activity (3T3-L1 [25]): Active | Activity (3T3-L1 [26]): Active | Activity (3T3-L1 [27]): Active | Activity (3T3-L1 [28]): Active | Activity (3T3-L1 [29]): Active | Activity [4]: Non-toxic | Activity (3T3-L1 [30]): Dose-dependent effect | Activity [31]: Active | Activity (3T3-L1 [32]): Active | Activity [7]: inactive | Activity (3T3-L1 [8]): inactive | Activity (3T3-L1 [33]): Dose-dependent effect | Activity (3T3-L1 [10]): Active | Activity (3T3-L1 [34]): Active | Activity (3T3-L1 [35]): inactive | Activity (3T3-L1 [36]): Active | Activity [15]: inactive | Activity [16]: Non-toxic | Activity (3T3-L1 [37]): Active | Activity (3T3-L1 [18]): inactive | Activity (3T3-L1 [20]): inactive | Activity (3T3-L1 [38]): Active | Activity (3T3-L1 [39]): Active | Activity (3T3-L1 [40]): inactive | Activity [21]: inactive
